# Reference: US10695337B2, “Piperidin-4-yl azetidine derivatives as JAK1 inhibitors” (Incyte Corporation, priority 2010, dated 2020)
# Molecular target: human JAK1 (a.a. 837-1142)
# Test: In vitro JAK kinase assay (HTRF, phosphorylation of a biotinylated peptide), JAK1
# Assay type: biochemical
# Conditions: measured at 1 mM ATP; JAK2 IC50 / JAK1 IC50
# Outline: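 N-terminal His-tagged catalytic domains, baculovirus-expressed in insect cells, phosphorylated a biotinylated peptide for 1 hr at room temperature. EDTA stop was followed by SA-APC and Eu-Py20 antibody for 40 minutes, with phosphopeptide read by HTRF.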
row,IC50 Ratio JAK2/JAK1,Structure (SMILES)
1,8.5,"N#CCC1(n2cc(-c3ncnc4[nH]ccc34)cn2)CN(C2CCN(C(=O)Nc3cccc(Cl)c3F)CC2)C1 [Example 177, N-(3-chloro-2-fluorophenyl)-4-{3-(cyanomethyl)-3-[4-(7H-pyrrolo[2,3-d]pyrimidin-4-yl)-1H-pyrazol-1-yl]azetidin-1-yl}piperidine-1-carboxamide]"
2,6.5,"N#CCC1(n2cc(-c3ncnc4[nH]ccc34)cn2)CN(C2CCN(C(=O)Nc3ccc(Cl)cc3F)CC2)C1 [Example 178, N-(4-chloro-2-fluorophenyl)-4-{3-(cyanomethyl)-3-[4-(7H-pyrrolo[2,3-d]pyrimidin-4-yl)-1H-pyrazol-1-yl]azetidin-1-yl}piperidine-1-carboxamide]"
3,3.8,"N#CCC1(n2cc(-c3ncnc4[nH]ccc34)cn2)CN(C2CCN(C(=O)Nc3ccsc3)CC2)C1 [Example 179, 4-{3-(cyanomethyl)-3-[4-(7H-pyrrolo[2,3-d]pyrimidin-4-yl)-1H-pyrazol-1-yl]azetidin-1-yl}-N-3-thienylpiperidine-1-carboxamide]"
4,4.0,"COc1ccccc1NC(=O)N1CCC(N2CC(CC#N)(n3cc(-c4ncnc5[nH]ccc45)cn3)C2)CC1 [Example 180, 4-{3-(cyanomethyl)-3-[4-(7H-pyrrolo[2,3-d]pyrimidin-4-yl)-1H-pyrazol-1-yl]azetidin-1-yl}-N-(2-methoxyphenyl)piperidine-1-carboxamide]"
5,4.9,"COc1cccc(NC(=O)N2CCC(N3CC(CC#N)(n4cc(-c5ncnc6[nH]ccc56)cn4)C3)CC2)c1 [Example 181, 4-{3-(cyanomethyl)-3-[4-(7H-pyrrolo[2,3-d]pyrimidin-4-yl)-1H-pyrazol-1-yl]azetidin-1-yl}-N-(3-methoxyphenyl)piperidine-1-carboxamide]"
6,3.7,"N#CCC1(n2cc(-c3ncnc4[nH]ccc34)cn2)CN(C2CCN(C(=O)Nc3ccc(OC(F)(F)F)cc3)CC2)C1 [Example 182, 4-{3-(cyanomethyl)-3-[4-(7H-pyrrolo[2,3-d]pyrimidin-4-yl)-1H-pyrazol-1-yl]azetidin-1-yl}-N-[4-(trifluoromethoxy)phenyl]piperidine-1-carboxamide]"
7,3.8,"N#CCC1(n2cc(-c3ncnc4[nH]ccc34)cn2)CN(C2CCN(C(=O)Nc3cccc(Cl)c3)CC2)C1 [Example 183, N-(3-chlorophenyl)-4-{3-(cyanomethyl)-3-[4-(7H-pyrrolo[2,3-d]pyrimidin-4-yl)-1H-pyrazol-1-yl]azetidin-1-yl}piperidine-1-carboxamide]"
8,3.9,"N#CCC1(n2cc(-c3ncnc4[nH]ccc34)cn2)CN(C2CCN(C(=O)Nc3ccc(Cl)cc3)CC2)C1 [Example 184, N-(4-chlorophenyl)-4-{3-(cyanomethyl)-3-[4-(7H-pyrrolo[2,3-d]pyrimidin-4-yl)-1H-pyrazol-1-yl]azetidin-1-yl}piperidine-1-carboxamide]"
9,9.5,"Cc1ccccc1NC(=O)N1CCC(N2CC(CC#N)(n3cc(-c4ncnc5[nH]ccc45)cn3)C2)CC1 [Example 185, 4-{3-(cyanomethyl)-3-[4-(7H-pyrrolo[2,3-d]pyrimidin-4-yl)-1H-pyrazol-1-yl]azetidin-1-yl}-N-(2-methylphenyl) piperidine-1-carboxamide]"
10,5.5,"COc1ccc(OC)c(NC(=O)N2CCC(N3CC(CC#N)(n4cc(-c5ncnc6[nH]ccc56)cn4)C3)CC2)c1 [Example 186, 4-{3-(cyanomethyl)-3-[4-(7H-pyrrolo[2,3-d]pyrimidin-4-yl)-1H-pyrazol-1-yl]azetidin-1-yl}-N-(2,5-dimethoxyphenyl)piperidine-1-carboxamide]"
11,3.5,"Cc1ccc(NC(=O)N2CCC(N3CC(CC#N)(n4cc(-c5ncnc6[nH]ccc56)cn4)C3)CC2)c(C)n1 [Example 189, 4-{3-(cyanomethyl)-3-[4-(7H-pyrrolo[2,3-d]pyrimidin-4-yl)-1H-pyrazol-1-yl]azetidin-1-yl}-N-(2,6-dimethylpyridin-3-yl)piperidine-1-carboxamide]"
12,2.1,"N#CCC1(n2cc(-c3ncnc4[nH]ccc34)cn2)CN(C2CCN(C(=O)Nc3nccs3)CC2)C1 [Example 190, 4-{3-(cyanomethyl)-3-[4-(7H-pyrrolo[2,3-d]pyrimidin-4-yl)-1H-pyrazol-1-yl]azetidin-1-yl}-N-1,3-thiazol-2-ylpiperidine-1-carboxamide]"
13,1.4,"Cc1csc(NC(=O)N2CCC(N3CC(CC#N)(n4cc(-c5ncnc6[nH]ccc56)cn4)C3)CC2)n1 [Example 191, 4-{3-(cyanomethyl)-3-[4-(7H-pyrrolo[2,3-d]pyrimidin-4-yl)-1H-pyrazol-1-yl]azetidin-1-yl}-N-(4-methyl-1,3-thiazol-2-yl)piperidine-1-carboxamide]"
14,3.0,"Cc1nc(NC(=O)N2CCC(N3CC(CC#N)(n4cc(-c5ncnc6[nH]ccc56)cn4)C3)CC2)sc1C [Example 192, 4-{3-(cyanomethyl)-3-[4-(7H-pyrrolo[2,3-d]pyrimidin-4-yl)-1H-pyrazol-1-yl]azetidin-1-yl}-N-(4,5-dimethyl-1,3-thiazol-2-yl)piperidine-1-carboxamide]"
15,0.5,"N#CCC1(n2cc(-c3ncnc4[nH]ccc34)cn2)CN(C2CCN(C(=O)Nc3nc4ccccc4s3)CC2)C1 [Example 193, N-1,3-benzothiazol-2-yl-4-{3-(cyanomethyl)-3-[4-(7H-pyrrolo[2,3-d]pyrimidin-4-yl)-1H-pyrazol-1-yl]azetidin-1-yl}piperidine-1-carboxamide]"
16,2.2,"Cn1c(NC(=O)N2CCC(N3CC(CC#N)(n4cc(-c5ncnc6[nH]ccc56)cn4)C3)CC2)nc2ccccc21 [Example 194, 4-{3-(cyanomethyl)-3-[4-(7H-pyrrolo[2,3-d]pyrimidin-4-yl)-1H-pyrazol-1-yl]azetidin-1-yl}-N-(1-methyl-1H-benzimidazol-2-yl)piperidine-1-carboxamide]"
17,3.2,"N#CCC1(n2cc(-c3ncnc4[nH]ccc34)cn2)CN(C2CCN(C(=O)Nc3nc(-c4ccc(Cl)cc4)cs3)CC2)C1 [Example 195, N-[4-(4-chlorophenyl)-1,3-thiazol-2-yl]-4-{3-(cyanomethyl)-3-[4-(7H-pyrrolo[2,3-d]pyrimidin-4-yl)-1H-pyrazol-1-yl]azetidin-1-yl}piperidine-1-carboxamide]"
18,9.9,"CCn1nccc1NC(=O)N1CCC(N2CC(CC#N)(n3cc(-c4ncnc5[nH]ccc45)cn3)C2)CC1 [Example 196, 4-{3-(cyanomethyl)-3-[4-(7H-pyrrolo[2,3-d]pyrimidin-4-yl)-1H-pyrazol-1-yl]azetidin-1-yl}-N-(1-ethyl-1H-pyrazol-5-yl)piperidine-1-carboxamide]"
19,3.2,"Cc1cc(NC(=O)N2CCC(N3CC(CC#N)(n4cc(-c5ncnc6[nH]ccc56)cn4)C3)CC2)n(C)n1 [Example 197, 4-{3-(cyanomethyl)-3-[4-(7H-pyrrolo[2,3-d]pyrimidin-4-yl)-1H-pyrazol-1-yl]azetidin-1-yl}-N-(1,3-dimethyl-1H-pyrazol-5-yl)piperidine-1-carboxamide]"
20,4.4,"Cc1ncccc1NC(=O)N1CCC(N2CC(CC#N)(n3cc(-c4ncnc5[nH]ccc45)cn3)C2)CC1 [Example 198, 4-{3-(cyanomethyl)-3-[4-(7H-pyrrolo[2,3-d]pyrimidin-4-yl)-1H-pyrazol-1-yl]azetidin-1-yl}-N-(2-methylpyridin-3-yl)piperidine-1-carboxamide]"
21,10.0,"Cc1nc(F)ccc1NC(=O)N1CCC(N2CC(CC#N)(n3cc(-c4ncnc5[nH]ccc45)cn3)C2)CC1 [Example 199, 4-{3-(cyanomethyl)-3-[4-(7H-pyrrolo[2,3-d]pyrimidin-4-yl)-1H-pyrazol-1-yl]azetidin-1-yl}-N-(6-fluoro-2-methylpyridin-3-yl)piperidine-1-carboxamide]"
22,6.7,"Cc1ccc(NC(=O)N2CCC(N3CC(CC#N)(n4cc(-c5ncnc6[nH]ccc56)cn4)C3)CC2)c(F)n1 [Example 200, 4-{3-(cyanomethyl)-3-[4-(7H-pyrrolo[2,3-d]pyrimidin-4-yl)-1H-pyrazol-1-yl]azetidin-1-yl}-N-(2-fluoro-6-methylpyridin-3-yl)piperidine-1-carboxamide]"
23,3.6,"N#CCC1(n2cc(-c3ncnc4[nH]ccc34)cn2)CN(C2CCN(C(=O)Nc3ncccc3C(F)(F)F)CC2)C1 [Example 201, 4-{3-(cyanomethyl)-3-[4-(7H-pyrrolo[2,3-d]pyrimidin-4-yl)-1H-pyrazol-1-yl]azetidin-1-yl}-N-[3-(trifluoromethyl)pyridin-2-yl]piperidine-1-carboxamide]"
24,6.4,"N#CCC1(n2cc(-c3ncnc4[nH]ccc34)cn2)CN(C2CCN(C(=O)Nc3ncccc3F)CC2)C1 [Example 202, 4-{3-(cyanomethyl)-3-[4-(7H-pyrrolo[2,3-d]pyrimidin-4-yl)-1H-pyrazol-1-yl]azetidin-1-yl}-N-(3-fluoropyridin-2-yl)piperidine-1-carboxamide]"
25,8.6,"N#CCC1(n2cc(-c3ncnc4[nH]ccc34)cn2)CN(C2CCN(C(=O)Nc3ncc(F)cc3F)CC2)C1 [Example 203, 4-{3-(cyanomethyl)-3-[4-(7H-pyrrolo[2,3-d]pyrimidin-4-yl)-1H-pyrazol-1-yl]azetidin-1-yl}-N-(3,5-difluoropyridin-2-yl)piperidine-1-carboxamide]"
26,4.0,"COc1ncccc1NC(=O)N1CCC(N2CC(CC#N)(n3cc(-c4ncnc5[nH]ccc45)cn3)C2)CC1 [Example 204, 4-{3-(cyanomethyl)-3-[4-(7H-pyrrolo[2,3-d]pyrimidin-4-yl)-1H-pyrazol-1-yl]azetidin-1-yl}-N-(2-methoxypyridin-3-yl)piperidine-1-carboxamide]"
27,4.4,"Cc1nc(C(F)(F)F)ccc1NC(=O)N1CCC(N2CC(CC#N)(n3cc(-c4ncnc5[nH]ccc45)cn3)C2)CC1 [Example 205, 4-{3-(cyanomethyl)-3-[4-(7H-pyrrolo[2,3-d]pyrimidin-4-yl)-1H-pyrazol-1-yl]azetidin-1-yl}-N-[2-methyl-6-(trifluoromethyl)pyridin-3-yl]piperidine-1-carboxamide]"
